Experimental data from publication PMC11864979, “First-in-class ultralong-target-residence-time p38α inhibitors as a mitosis-targeted therapy for colorectal cancer” (Nature Cancer, 2025).
Read-outs that look alike come from different tables or passages of the source.

Tests used:
Assay in all cases: selectivity profiling in a panel of 340 wild-type kinases (Reaction Biology Europe)
Type in all cases: binding
340 wild-type kinases [1] = molecular target: T1, 340 wild-type kinases (Homo sapiens, UniProt Q14004)
T1 construct: purchased Reaction Biology Europe

340 wild-type kinases [2] = molecular target: T2, 340 wild-type kinases (Homo sapiens, UniProt Q14680)
T2 construct: purchased Reaction Biology Europe

340 wild-type kinases [3] = molecular target: T3, 340 wild-type kinases (Homo sapiens, UniProt Q99640)
T3 construct: purchased Reaction Biology Europe
T3 sequence (Q99640 1-499): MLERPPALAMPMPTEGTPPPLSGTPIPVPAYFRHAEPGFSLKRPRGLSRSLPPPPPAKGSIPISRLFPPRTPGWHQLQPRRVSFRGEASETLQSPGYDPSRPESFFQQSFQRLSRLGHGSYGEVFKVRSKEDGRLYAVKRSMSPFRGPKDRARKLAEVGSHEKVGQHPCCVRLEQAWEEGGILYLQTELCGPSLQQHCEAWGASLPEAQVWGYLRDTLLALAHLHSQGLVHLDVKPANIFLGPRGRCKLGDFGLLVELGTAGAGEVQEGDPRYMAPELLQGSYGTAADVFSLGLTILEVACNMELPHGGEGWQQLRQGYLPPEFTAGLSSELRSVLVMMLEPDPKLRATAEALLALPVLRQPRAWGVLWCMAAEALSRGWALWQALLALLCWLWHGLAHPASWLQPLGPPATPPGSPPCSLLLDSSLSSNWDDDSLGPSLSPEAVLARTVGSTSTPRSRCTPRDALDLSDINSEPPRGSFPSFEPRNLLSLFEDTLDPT

340 wild-type kinases [4] = molecular target: T4, 340 wild-type kinases (Homo sapiens, UniProt Q00526)
T4 construct: purchased Reaction Biology Europe

340 wild-type kinases [5] = molecular target: T5, 340 wild-type kinases (Homo sapiens, UniProt Q6P5Z2)
T5 construct: purchased Reaction Biology Europe

340 wild-type kinases [6] = molecular target: T6, 340 wild-type kinases (Homo sapiens, UniProt P57078)
T6 construct: purchased Reaction Biology Europe
T6 sequence (P57078 1-832): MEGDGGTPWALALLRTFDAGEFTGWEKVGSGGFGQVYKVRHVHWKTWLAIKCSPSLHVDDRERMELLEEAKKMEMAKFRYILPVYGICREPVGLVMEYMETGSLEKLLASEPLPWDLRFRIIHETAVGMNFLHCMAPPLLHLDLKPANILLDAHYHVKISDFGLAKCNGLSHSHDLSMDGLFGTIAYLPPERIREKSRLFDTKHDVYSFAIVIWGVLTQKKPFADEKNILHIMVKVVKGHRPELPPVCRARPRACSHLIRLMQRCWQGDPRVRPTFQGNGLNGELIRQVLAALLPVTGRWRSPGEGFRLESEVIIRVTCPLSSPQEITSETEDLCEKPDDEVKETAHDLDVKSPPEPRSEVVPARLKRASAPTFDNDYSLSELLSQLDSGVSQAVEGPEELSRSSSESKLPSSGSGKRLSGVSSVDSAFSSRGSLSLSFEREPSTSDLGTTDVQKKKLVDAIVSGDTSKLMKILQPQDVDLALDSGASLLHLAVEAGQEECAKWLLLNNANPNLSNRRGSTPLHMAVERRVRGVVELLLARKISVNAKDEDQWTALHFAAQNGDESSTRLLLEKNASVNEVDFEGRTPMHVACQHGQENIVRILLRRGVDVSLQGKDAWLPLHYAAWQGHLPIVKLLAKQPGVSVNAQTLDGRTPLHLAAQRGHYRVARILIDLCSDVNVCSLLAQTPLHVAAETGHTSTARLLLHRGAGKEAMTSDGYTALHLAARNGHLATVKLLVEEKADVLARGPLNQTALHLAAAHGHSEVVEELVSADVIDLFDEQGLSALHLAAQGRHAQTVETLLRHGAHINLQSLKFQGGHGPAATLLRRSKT

340 wild-type kinases [7] = molecular target: T7, 340 wild-type kinases (Homo sapiens, UniProt Q9UKI8)
T7 construct: purchased Reaction Biology Europe
T7 sequence (Q9UKI8 1-766): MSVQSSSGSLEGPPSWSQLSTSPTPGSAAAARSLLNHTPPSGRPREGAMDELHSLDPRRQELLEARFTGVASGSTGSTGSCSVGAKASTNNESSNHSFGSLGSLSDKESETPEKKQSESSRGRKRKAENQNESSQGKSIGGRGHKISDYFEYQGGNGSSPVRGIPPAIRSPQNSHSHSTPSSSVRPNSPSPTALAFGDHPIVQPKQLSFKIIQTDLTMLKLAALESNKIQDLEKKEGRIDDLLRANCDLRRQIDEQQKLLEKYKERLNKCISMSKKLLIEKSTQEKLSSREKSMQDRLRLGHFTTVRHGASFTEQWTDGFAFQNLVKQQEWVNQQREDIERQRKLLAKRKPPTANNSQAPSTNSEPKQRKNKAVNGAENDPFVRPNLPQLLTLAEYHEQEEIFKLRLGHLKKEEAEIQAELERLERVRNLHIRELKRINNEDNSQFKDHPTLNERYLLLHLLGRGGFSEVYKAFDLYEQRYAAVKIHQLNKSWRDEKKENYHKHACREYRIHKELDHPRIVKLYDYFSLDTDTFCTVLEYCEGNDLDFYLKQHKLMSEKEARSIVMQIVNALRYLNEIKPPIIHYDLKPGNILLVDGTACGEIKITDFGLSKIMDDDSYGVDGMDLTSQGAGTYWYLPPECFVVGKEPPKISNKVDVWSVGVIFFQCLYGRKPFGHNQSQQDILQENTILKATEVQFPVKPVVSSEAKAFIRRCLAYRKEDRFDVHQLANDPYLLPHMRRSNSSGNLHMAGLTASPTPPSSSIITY

[8] = read-out: CDK13/CycK residual activity

T1 sequence (Q14004 whole entry): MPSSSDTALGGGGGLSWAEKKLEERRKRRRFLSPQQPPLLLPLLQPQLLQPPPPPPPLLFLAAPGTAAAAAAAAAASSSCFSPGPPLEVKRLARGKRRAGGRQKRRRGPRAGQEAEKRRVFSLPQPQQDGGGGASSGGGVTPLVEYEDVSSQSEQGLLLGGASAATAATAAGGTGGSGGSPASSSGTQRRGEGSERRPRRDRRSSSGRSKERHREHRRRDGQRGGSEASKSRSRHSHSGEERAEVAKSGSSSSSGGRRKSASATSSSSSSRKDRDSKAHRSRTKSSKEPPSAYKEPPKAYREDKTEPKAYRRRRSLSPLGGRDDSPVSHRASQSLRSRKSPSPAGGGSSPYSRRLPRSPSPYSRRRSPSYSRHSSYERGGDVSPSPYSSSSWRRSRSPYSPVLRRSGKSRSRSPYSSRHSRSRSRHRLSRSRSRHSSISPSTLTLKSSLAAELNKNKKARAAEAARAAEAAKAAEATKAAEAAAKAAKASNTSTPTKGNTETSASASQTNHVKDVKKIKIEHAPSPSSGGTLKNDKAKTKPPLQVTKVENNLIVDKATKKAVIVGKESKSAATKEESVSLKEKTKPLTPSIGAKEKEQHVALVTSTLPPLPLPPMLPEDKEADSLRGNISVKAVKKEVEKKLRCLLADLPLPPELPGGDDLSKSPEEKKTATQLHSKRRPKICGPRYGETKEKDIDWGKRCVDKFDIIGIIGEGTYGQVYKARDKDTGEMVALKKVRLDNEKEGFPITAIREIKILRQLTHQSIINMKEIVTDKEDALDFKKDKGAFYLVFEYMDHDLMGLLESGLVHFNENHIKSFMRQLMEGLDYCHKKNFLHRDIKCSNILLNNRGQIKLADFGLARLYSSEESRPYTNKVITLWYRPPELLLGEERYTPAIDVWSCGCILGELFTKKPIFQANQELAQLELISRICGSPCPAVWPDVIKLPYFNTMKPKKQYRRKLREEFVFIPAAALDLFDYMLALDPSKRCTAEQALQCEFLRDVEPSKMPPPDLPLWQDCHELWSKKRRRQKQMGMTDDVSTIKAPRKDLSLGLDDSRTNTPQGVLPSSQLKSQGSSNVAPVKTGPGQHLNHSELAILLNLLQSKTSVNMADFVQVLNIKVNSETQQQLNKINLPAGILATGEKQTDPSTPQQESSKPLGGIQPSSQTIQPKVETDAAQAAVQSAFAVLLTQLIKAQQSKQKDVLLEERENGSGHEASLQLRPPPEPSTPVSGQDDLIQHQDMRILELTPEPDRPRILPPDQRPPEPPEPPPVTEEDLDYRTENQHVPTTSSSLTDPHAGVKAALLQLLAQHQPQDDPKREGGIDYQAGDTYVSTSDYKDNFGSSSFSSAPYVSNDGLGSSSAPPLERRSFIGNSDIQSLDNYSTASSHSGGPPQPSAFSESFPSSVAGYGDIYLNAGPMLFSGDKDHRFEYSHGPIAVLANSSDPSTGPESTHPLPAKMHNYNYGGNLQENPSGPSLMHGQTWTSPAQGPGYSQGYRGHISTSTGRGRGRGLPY
T2 sequence (Q14680 whole entry): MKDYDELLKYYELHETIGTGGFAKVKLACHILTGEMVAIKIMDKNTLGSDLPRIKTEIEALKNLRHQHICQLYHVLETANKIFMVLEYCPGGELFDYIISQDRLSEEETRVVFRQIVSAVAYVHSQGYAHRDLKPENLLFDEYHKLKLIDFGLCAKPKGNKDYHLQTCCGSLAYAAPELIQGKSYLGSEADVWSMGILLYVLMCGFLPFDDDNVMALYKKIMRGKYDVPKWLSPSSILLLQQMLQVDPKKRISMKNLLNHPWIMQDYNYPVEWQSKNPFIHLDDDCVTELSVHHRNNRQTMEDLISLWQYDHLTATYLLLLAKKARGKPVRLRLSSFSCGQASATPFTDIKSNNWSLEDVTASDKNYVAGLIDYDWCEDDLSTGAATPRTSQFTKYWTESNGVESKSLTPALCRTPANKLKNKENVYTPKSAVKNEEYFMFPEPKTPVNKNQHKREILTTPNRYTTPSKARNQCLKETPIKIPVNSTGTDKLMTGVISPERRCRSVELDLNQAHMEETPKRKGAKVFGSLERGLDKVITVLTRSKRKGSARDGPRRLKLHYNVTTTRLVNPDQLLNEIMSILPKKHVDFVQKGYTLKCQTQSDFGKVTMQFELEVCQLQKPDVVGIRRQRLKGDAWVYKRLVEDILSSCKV
T5 sequence (Q6P5Z2 whole entry): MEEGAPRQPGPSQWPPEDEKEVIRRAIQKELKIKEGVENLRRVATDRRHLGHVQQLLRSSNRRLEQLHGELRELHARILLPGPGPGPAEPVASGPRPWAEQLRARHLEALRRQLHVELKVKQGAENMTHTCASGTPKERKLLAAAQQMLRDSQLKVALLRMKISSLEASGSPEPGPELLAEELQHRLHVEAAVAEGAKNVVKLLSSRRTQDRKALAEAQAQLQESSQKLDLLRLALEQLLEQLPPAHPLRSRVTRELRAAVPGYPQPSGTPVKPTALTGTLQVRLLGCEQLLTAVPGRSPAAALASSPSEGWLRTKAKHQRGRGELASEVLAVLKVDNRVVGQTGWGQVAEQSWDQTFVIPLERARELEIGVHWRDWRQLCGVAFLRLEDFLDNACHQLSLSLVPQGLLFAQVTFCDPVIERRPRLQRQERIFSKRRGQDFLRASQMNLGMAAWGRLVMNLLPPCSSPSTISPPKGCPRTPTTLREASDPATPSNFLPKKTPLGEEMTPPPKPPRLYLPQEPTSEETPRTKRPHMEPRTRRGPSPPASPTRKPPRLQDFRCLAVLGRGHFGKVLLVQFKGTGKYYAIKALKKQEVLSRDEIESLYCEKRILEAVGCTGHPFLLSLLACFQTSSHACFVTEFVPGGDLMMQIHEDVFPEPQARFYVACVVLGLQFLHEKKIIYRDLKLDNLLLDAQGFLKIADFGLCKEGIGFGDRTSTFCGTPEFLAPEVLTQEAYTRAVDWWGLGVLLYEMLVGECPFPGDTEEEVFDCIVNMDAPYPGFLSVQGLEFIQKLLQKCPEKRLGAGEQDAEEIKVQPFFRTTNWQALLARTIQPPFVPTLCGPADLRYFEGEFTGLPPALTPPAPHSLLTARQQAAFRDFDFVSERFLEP
T4 sequence (Q00526 whole entry): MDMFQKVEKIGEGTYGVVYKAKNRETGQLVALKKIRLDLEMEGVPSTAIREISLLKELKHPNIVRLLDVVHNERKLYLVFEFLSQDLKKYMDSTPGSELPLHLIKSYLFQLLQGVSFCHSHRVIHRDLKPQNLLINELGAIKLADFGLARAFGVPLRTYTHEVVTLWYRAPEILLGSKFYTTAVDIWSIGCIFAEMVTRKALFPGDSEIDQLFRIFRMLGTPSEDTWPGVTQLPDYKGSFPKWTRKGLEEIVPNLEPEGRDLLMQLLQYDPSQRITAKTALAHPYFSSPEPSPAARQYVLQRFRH

CNC(=O)c1ccc2c(c1)C(=O)c1ccc(Nc3ccc(F)c(NC(=O)C4CC4)c3)cc1CC2 [Compound 2015]
remaining activity at 0.2 µM (340 wild-type kinases [1]; [8]): 87.3%
remaining activity at 1 µM (340 wild-type kinases [1]; [8]): 86.5%
remaining activity at 0.2 µM (340 wild-type kinases [1]; read-out: residual activity): 87.3%
remaining activity at 1 µM (340 wild-type kinases [1]; read-out: residual activity): 86.5%
remaining activity at 0.2 µM (340 wild-type kinases [2]; 0.2 µM 2015, read-out: MELK residual activity): 94.5%
remaining activity at 1 µM (340 wild-type kinases [2]; 1 µM 2015, read-out: MELK residual activity): 91%
remaining activity at 0.2 µM (340 wild-type kinases [2]; MELK, 0.2 µM, read-out: residual activity): 94.5%
remaining activity at 1 µM (340 wild-type kinases [2]; MELK, 1 µM, read-out: residual activity): 91%
remaining activity at 0.2 µM (340 wild-type kinases [3]; 0.2 µM 2015, read-out: PKMYT1 residual activity): 98.1%
remaining activity at 1 µM (340 wild-type kinases [3]; 1 µM 2015, read-out: PKMYT1 residual activity): 102%
remaining activity at 0.2 µM (340 wild-type kinases [3]; PKMYT1, 0.2 µM, read-out: residual activity): 98%
remaining activity at 1 µM (340 wild-type kinases [3]; PKMYT1, 1 µM, read-out: residual activity): 102%
remaining activity at 0.2 µM (340 wild-type kinases [4]; 0.2 µM 2015, read-out: CDK3/CycC residual activity): 104%
remaining activity at 0.2 µM (340 wild-type kinases [4]; 0.2 µM 2015, read-out: CDK3/CycE1 residual activity): 88.9%
remaining activity at 1 µM (340 wild-type kinases [4]; 1 µM 2015, read-out: CDK3/CycC residual activity): 96.3%
remaining activity at 1 µM (340 wild-type kinases [4]; 1 µM 2015, read-out: CDK3/CycE1 residual activity): 81.7%
remaining activity at 0.2 µM (340 wild-type kinases [4]; CDK3/CycC, 0.2 µM, read-out: residual activity): 104%
remaining activity at 1 µM (340 wild-type kinases [4]; CDK3/CycC, 1 µM, read-out: residual activity): 96.3%
remaining activity at 0.2 µM (340 wild-type kinases [4]; CDK3/CycE1, 0.2 µM, read-out: residual activity): 88.9%
remaining activity at 1 µM (340 wild-type kinases [4]; CDK3/CycE1, 1 µM, read-out: residual activity): 81.7%
remaining activity at 0.2 µM (340 wild-type kinases [5]; 0.2 µM 2015, read-out: PKN3 residual activity): 84.5%
remaining activity at 1 µM (340 wild-type kinases [5]; 1 µM 2015, read-out: PKN3 residual activity): 95.6%
remaining activity at 0.2 µM (340 wild-type kinases [5]; PKN3, 0.2 µM, read-out: residual activity): 84.5%
remaining activity at 1 µM (340 wild-type kinases [5]; PKN3, 1 µM, read-out: residual activity): 95.6%
remaining activity at 0.2 µM (340 wild-type kinases [6]; 0.2 µM 2015, read-out: RIPK4 residual activity): 104%
remaining activity at 1 µM (340 wild-type kinases [6]; 1 µM 2015, read-out: RIPK4 residual activity): 98.2%
remaining activity at 0.2 µM (340 wild-type kinases [6]; RIPK4, 0.2 µM, read-out: residual activity): 104%
remaining activity at 1 µM (340 wild-type kinases [6]; RIPK4, 1 µM, read-out: residual activity): 98.2%
remaining activity at 0.2 µM (340 wild-type kinases [7]; 0.2 µM 2015, read-out: TLK1 residual activity): 122%
remaining activity at 1 µM (340 wild-type kinases [7]; 1 µM 2015, read-out: TLK1 residual activity): 105%
remaining activity at 0.2 µM (340 wild-type kinases [7]; TLK1, 0.2 µM, read-out: residual activity): 122%
remaining activity at 1 µM (340 wild-type kinases [7]; TLK1, 1 µM, read-out: residual activity): 105%
